Laboratory results as given in patent US20230212180A1, “SUBSTITUTED PYRAZINE COMPOUND, PHARMACEUTICAL COMPOSITION COMPRISING SAME, AND USE THEREOF” (Sichuan Kelun-Biotech Biopharmaceutical Co., Ltd., priority 2020, published 2023).
Residue numbers refer to the chain shown, from its start.

Experiments:
Assay in all cases: Kinase selectivity test (ThermoFisher)
Format in all cases: biochemical
Set-up in all cases: concentration or dose not given beside the values
GRK4 = molecular target: T1, GRK4 (Homo sapiens, UniProt P32298)
T1 construct: purchased ThermoFisher USA (contract testing)
Experimental: (§1) Test Example 11: Kinase Selectivity Test
(§2) 1. Experimental Purpose: Tests for selectivity of the compounds of the present disclosure for a plurality of kinases were carried out to assess the safety risk of the compounds of the present disclosure.
(§3) 2. Test institution: ThermoFisher USA
(§4) 3. Testing methods: LanthaScreen binding, Z′-LYTE, Adapta
(§5) 4. Test targets: 100 targets in total

GSK3B (GSK3 beta) = molecular target: T2, GSK3B (GSK3 beta) (Homo sapiens, UniProt P49841)
T2 construct: purchased ThermoFisher USA (contract testing)
Experimental: as §1, §2, §3, §4, §5

AAK1 = molecular target: T3, AAK1 (Homo sapiens, UniProt Q2M2I8)
T3 construct: purchased ThermoFisher USA (contract testing)
Experimental: as §1, §2, §3, §4, §5

CAMK1 (CaMK1) = molecular target: T4, CAMK1 (CaMK1) (Homo sapiens, UniProt Q14012)
T4 construct: purchased ThermoFisher USA (contract testing)
Experimental: as §1, §2, §3, §4, §5

FLT3 D835Y = molecular target: T5, FLT3 D835Y (Homo sapiens, UniProt P36888, D835Y)
T5 construct: purchased ThermoFisher USA (contract testing)
T5 sequence (P36888 27-993 D835Y): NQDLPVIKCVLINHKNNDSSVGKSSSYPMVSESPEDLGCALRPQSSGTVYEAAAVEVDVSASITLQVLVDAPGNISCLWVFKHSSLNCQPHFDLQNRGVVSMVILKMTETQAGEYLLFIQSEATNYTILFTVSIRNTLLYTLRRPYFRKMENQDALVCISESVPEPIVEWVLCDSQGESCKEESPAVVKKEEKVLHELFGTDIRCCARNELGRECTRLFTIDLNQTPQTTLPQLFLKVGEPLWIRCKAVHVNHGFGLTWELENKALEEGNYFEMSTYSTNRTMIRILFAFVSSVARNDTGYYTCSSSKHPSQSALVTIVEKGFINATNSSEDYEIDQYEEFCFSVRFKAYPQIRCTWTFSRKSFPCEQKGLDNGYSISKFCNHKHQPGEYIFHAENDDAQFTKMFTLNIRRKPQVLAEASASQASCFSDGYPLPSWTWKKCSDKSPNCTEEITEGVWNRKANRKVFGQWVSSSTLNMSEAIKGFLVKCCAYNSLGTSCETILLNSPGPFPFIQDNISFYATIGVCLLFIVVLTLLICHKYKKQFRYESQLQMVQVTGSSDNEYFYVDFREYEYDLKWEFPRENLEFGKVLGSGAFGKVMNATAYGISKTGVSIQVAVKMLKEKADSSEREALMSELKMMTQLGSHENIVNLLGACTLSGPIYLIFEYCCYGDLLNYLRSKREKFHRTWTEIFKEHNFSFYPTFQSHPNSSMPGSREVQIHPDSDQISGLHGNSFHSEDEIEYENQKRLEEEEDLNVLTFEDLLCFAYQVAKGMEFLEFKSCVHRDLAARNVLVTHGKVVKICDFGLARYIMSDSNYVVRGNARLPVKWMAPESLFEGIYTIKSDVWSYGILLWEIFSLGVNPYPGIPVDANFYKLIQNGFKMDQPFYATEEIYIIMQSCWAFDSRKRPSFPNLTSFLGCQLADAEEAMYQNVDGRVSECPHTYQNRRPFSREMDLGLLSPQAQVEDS
Experimental: as §1, §2, §3, §4, §5

FLT3 = molecular target: T6, FLT3 (Homo sapiens, UniProt P36888)
T6 construct: purchased ThermoFisher USA (contract testing)
T6 sequence (P36888 27-993): T5 sequence (P36888 27-993 D835Y) with Y809D
Experimental: as §1, §2, §3, §4, §5

T2 sequence (P49841 whole entry): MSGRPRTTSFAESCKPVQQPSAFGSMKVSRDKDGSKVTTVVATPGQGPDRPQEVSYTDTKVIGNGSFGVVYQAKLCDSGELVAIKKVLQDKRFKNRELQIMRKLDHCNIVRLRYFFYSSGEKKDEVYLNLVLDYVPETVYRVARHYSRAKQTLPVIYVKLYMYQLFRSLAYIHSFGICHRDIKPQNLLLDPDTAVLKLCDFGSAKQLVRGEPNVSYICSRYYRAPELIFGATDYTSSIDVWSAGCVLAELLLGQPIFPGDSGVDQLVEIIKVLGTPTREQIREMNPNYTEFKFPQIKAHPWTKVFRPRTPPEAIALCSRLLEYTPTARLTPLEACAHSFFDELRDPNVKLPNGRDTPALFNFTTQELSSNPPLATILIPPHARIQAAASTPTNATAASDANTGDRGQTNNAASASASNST
T3 sequence (Q2M2I8 whole entry): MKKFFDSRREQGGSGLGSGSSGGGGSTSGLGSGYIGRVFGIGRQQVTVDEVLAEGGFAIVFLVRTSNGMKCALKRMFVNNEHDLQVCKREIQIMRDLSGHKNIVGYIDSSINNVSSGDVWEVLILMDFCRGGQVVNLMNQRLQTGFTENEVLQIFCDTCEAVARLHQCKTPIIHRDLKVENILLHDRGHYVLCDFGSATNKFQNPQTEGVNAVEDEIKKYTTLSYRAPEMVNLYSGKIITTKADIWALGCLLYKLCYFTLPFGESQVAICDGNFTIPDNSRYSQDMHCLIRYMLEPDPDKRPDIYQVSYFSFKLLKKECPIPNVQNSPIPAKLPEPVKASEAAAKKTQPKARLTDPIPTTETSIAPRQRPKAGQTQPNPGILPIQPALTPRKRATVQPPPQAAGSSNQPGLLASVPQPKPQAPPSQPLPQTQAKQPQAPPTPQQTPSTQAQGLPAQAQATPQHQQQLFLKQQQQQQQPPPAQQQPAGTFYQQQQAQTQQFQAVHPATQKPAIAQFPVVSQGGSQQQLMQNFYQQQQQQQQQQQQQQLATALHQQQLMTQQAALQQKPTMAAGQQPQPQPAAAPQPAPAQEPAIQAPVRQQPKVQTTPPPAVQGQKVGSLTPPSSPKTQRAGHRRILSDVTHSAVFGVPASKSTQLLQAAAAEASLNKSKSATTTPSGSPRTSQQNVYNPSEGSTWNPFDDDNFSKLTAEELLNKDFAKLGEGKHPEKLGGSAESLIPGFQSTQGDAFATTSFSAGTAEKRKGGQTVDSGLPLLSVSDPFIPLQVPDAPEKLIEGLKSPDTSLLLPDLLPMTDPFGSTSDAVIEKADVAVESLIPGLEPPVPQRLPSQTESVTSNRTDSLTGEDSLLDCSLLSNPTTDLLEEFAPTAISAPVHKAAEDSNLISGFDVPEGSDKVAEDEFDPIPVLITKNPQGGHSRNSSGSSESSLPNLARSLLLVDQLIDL
T1 sequence (P32298 whole entry): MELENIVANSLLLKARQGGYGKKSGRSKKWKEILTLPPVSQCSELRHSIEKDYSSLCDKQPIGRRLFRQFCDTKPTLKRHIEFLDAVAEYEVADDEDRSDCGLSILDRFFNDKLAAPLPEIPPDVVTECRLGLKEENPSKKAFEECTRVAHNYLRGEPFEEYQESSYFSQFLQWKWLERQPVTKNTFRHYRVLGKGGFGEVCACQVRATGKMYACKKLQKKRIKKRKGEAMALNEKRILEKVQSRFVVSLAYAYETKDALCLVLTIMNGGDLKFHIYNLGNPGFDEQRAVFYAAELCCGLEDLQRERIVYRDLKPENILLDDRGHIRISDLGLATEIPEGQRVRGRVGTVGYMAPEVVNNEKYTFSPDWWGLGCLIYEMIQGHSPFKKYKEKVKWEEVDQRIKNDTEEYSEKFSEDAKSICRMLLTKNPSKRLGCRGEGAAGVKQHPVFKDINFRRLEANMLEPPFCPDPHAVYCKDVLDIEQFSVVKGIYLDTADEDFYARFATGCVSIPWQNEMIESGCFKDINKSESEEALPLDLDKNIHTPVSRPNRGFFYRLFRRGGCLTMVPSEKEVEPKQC
T4 sequence (Q14012 whole entry): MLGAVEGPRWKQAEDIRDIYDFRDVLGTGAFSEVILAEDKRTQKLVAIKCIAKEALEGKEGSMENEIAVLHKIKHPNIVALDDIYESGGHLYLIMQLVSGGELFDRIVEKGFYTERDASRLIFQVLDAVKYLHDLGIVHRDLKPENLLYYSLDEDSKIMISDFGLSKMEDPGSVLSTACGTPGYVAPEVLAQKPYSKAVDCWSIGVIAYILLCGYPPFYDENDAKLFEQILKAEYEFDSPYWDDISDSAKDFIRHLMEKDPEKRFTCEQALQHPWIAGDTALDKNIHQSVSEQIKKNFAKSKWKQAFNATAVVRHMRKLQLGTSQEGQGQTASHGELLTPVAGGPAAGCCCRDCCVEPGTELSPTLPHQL

SMILES	Inhibition (%) Target 1 (GRK4)	Inhibition (%) Target 2 (GRK4)	Inhibition (%) Mean value (GRK4)	Inhibition (%) Target 1 (GSK3B (GSK3 beta))	Inhibition (%) Target 2 (GSK3B (GSK3 beta))	Inhibition (%) Mean value (GSK3B (GSK3 beta))	Inhibition (%) Target 1 (AAK1)	Inhibition (%) Target 2 (AAK1)	Inhibition (%) Mean value (AAK1)	Inhibition (%) Target 1 (CAMK1 (CaMK1))	Inhibition (%) Target 2 (CAMK1 (CaMK1))	Inhibition (%) Mean value (CAMK1 (CaMK1))	Inhibition (%) Target 1 (FLT3 D835Y)	Inhibition (%) Target 2 (FLT3 D835Y)	Inhibition (%) Mean value (FLT3 D835Y)	Inhibition (%) Target 1 (FLT3)	Inhibition (%) Target 2 (FLT3)	Inhibition (%) Mean value (FLT3)
C[C@@H]1OCC2(CCN(c3ncc(Sc4ccnc(N5CC(C(C)(C)O)C5)c4Cl)nc3CO)CC2)[C@@H]1N [Example 12, 2-(1-(4-(5-((3S,4S)-4-amino-3-methyl-2-oxa-8-azaspiro[4.5]decan-8-yl)-6-(hydroxymethyl)pyrazin-2-ylthio)-3-chloropyridin-2-yl)azetidin-3-yl)propan-2-ol]	9%	7%	8%	7%	7%	7%	3%	0%	1%	−9%	−16%	−12%	5%	6%	6%	11%	8%	9%
C[C@@H]1OCC2(CCN(c3cnc(Sc4ccnc(N)c4Cl)c(N)n3)CC2)[C@@H]1N [TNO-155, reference compound]	96%	95%	95%	96%	96%	96%	49%	46%	48%	55%	46%	51%	71%	69%	70%	96%	97%	97%
